Patent EP4119948A1, “METHOD FOR STRATIFICATION AND TREATMENT OF MULTIPLE SCLEROSIS” (Universität Zürich, priority 2021, dated 2023)

How the values were obtained:
[1] = test system: CSF-infiltrating CD4+ T cells; test: IFN-γ release (ELISA) of PHA-expanded CSF-infiltrating CD4+ T cells stimulated with peptides presented by autologous PBMCs; type: cell-based, human; details: peptide 10 µM, 105 MS patients
Experimental: (§1) PBMCs were freshly isolated using Ficoll (Eurobio, Germany) density gradient centrifugation. CSF-infiltrating CD4^+ T cells were expanded with PHA in a single round of stimulation using a previously reported protocol aimed to reduce TCR repertoire bias (Planas et al., […], Sci Transl Med, 10(462):eaat4301). 6 × 10^4 PHA-expanded CSF-infiltrating CD4^+ T cells were seeded in quadruplicate with 2 × 10^5 irradiated autologous PBMCs as antigen presenting cells and stimulated with peptides (Table 2) at a final concentration of 10 µM and with a T Cell Activation Kit (anti-CD3, anti-CD28, anti-CD2 beads) (Miltenyi Biotec) as positive control. Table 2. GDP-L-FS, myelin and CEF Peptides (amino acid sequences)
Release of IFN-γ was measured using the ELISA MAX™ Deluxe Set Human IFN-γ (Biolegend, San Diego, CA, USA) according to the manufacturer's instructions. A well was considered positive if IFN-γ ≥20 pg/ml and a patient was considered positive for a peptide if the mean IFN-γ of the four wells was ≥ 20 pg/ml and at least 3 of the 4 wells were positive.

[2] = test system: CSF-infiltrating CD4+ T cells; test: Proliferative response (3H-thymidine, stimulation index) of PHA-expanded CSF-infiltrating CD4+ T cells to peptides presented by autologous PBMCs; type: cell-based, human; details: peptide 10 µM, 72 h, 105 MS patients
Experimental: as §1
Proliferation was measured 72 h after stimulation using 3H-thymidine (Hartmann Analytic, Braunschweig, Germany) as previously reported (Planas et al., 2018). The stimulation index of single wells (SI) was calculated as follows: SI = (cpm well with peptide) / (Mean cpm wells without peptide). A well was considered positive if SI ≥2.

MBP 83-99 (ENPVVHFFKNIVTPRT; listed as Homo sapiens) [MBP (83-99), myelin peptide …]
Positive wells % IFNγ release ([1]; well positive if IFN-γ ≥20 pg/ml, quadruplicates (420 wells per peptide)): 6.28% | Positive patients % IFNγ release ([1]; patient positive if mean IFN-γ of four wells ≥20 pg/ml and at least 3 of 4 wells positive): 5.71% | Positive wells % Proliferation ([2]; well positive if SI ≥2, quadruplicates (420 wells per peptide)): 1.92% | Positive patients % Proliferation ([2]; patient positive if mean SI of four wells ≥2 and at least 3 of four wells SI ≥2): 0.96%
